Test results taken from US7109338B2, “1,2-disubstituted 1,4-dihydro-4-oxoquinoline compounds” (priority 1999, dated 2006).
Converted amounts (≈) assume the structure as drawn.

Assays:
[1] = system: HRV 89 (41617-Gallo); test: Anti-rhinovirus activity (MTT), HRV89; assay type: cell-based, human rhinovirus; parameters: Anti-Rhinovirus activity, HRV89: unit not given here
[2] = system: human rhinovirus type 1B (HRV 1B, B632); test: Anti-rhinovirus activity (MTT), HRV1B; assay type: cell-based; parameters: Anti-Rhinovirus activity, HRV1B: unit not given here
[3] = Cytotoxicity (MTT, without virus), HeLa(Ohio); conditions: human, HeLa (Ohio strain) cells (uninfected)
[4] = system: HRV 2 (HGP); test: Anti-rhinovirus activity (MTT), HRV2; assay type: cell-based, human rhinovirus; parameters: Anti-Rhinovirus activity, HRV2: unit not given here
[5] = system: echovirus type 11 (Echo 11, Gregory); test: In vitro anti-picornavirus activity (MTT), Echo 11; assay type: cell-based; conditions: HeLa-S3 cells, MTT method, 37° C.
[6] = system: HRV36 (342H); test: Anti-rhinovirus spectrum (MTT), HRV36; assay type: cell-based, human rhinovirus; parameters: Anti-Rhinovirus activity, HRV36: unit not given here; conditions: HRV36
[7] = system: coxsackievirus type B4 (CB4,JVB); test: In vitro anti-picornavirus activity (MTT), CB4; assay type: cell-based; conditions: HeLa cells, MTT method, 37° C.
[8] = system: HeLa cells; test: Cytotoxicity (MTT, without virus), HeLa; conditions: HeLa, no virus, incubated for 4 days
[9] = system: HRV14 (1059); test: Anti-rhinovirus activity (MTT), HRV14; assay type: cell-based, human rhinovirus; parameters: Anti-Rhinovirus activity, HRV14: unit not given here
[10] = system: HRV3(FEB); test: Anti-rhinovirus spectrum (MTT), HRV3; assay type: cell-based, human rhinovirus; parameters: Anti-Rhinovirus activity, HRV3: unit not given here; conditions: HRV3
[11] = system: HRV1A (E28); test: Anti-rhinovirus activity (MTT), HRV1A; assay type: cell-based, human rhinovirus; parameters: Anti-Rhinovirus activity, HRV1A: unit not given here
[12] = system: HRV39 (209); test: Anti-rhinovirus spectrum (MTT), HRV39; assay type: cell-based, human rhinovirus; parameters: Anti-Rhinovirus activity, HRV39: unit not given here; conditions: HRV39
[13] = system: HRV10 (204-CV14); test: Anti-rhinovirus spectrum (MTT), HRV10; assay type: cell-based, human rhinovirus; parameters: Anti-Rhinovirus activity, HRV10: unit not given here; conditions: HRV10
[14] = system: HRV50(A2#58); test: Anti-rhinovirus spectrum (MTT), HRV50; assay type: cell-based, human rhinovirus; parameters: Anti-Rhinovirus activity, HRV50: unit not given here; conditions: HRV50
[15] = system: HRV5; test: Anti-rhinovirus spectrum (MTT), HRV5; assay type: cell-based, human rhinovirus; parameters: Anti-Rhinovirus activity, HRV5: unit not given here; conditions: HRV5
[16] = system: HeLa-S3 cells; test: Cytotoxicity (MTT, without virus), HeLa-S3; conditions: HeLa-S3, no virus, incubated for 4 days
[17] = system: HRV32 (363); test: Anti-rhinovirus spectrum (MTT), HRV32; assay type: cell-based, human rhinovirus; parameters: Anti-Rhinovirus activity, HRV32: unit not given here; conditions: HRV32
[18] = system: HRV21 (47); test: Anti-rhinovirus spectrum (MTT), HRV21; assay type: cell-based, human rhinovirus; parameters: Anti-Rhinovirus activity, HRV21: unit not given here; conditions: HRV21
[19] = system: Poliovirus type 1 (Polio 1, Sabin); test: microbe, parasite or virus in culture; assay type: cell-based
[20] = system: HRV31 (41F); test: Anti-rhinovirus spectrum (MTT), HRV31; assay type: cell-based, human rhinovirus; parameters: Anti-Rhinovirus activity, HRV31: unit not given here; conditions: HRV31
[21] = system: HeLa (Ohio strain)cells; test: Cytotoxicity (MTT, without virus), HeLa(Ohio); conditions: HeLa(Ohio), no virus, incubated for 4 days
[22] = system: HRV61 (6669-CV39); test: Anti-rhinovirus spectrum (MTT), HRV61; assay type: cell-based, human rhinovirus; parameters: Anti-Rhinovirus activity, HRV61: unit not given here; conditions: HRV61
[23] = system: HRV8(MRH); test: Anti-rhinovirus spectrum (MTT), HRV8; assay type: cell-based, human rhinovirus; parameters: Anti-Rhinovirus activity, HRV8: unit not given here; conditions: HRV8
[24] = system: HRV33 (1200); test: Anti-rhinovirus spectrum (MTT), HRV33; assay type: cell-based, human rhinovirus; parameters: Anti-Rhinovirus activity, HRV33: unit not given here; conditions: HRV33
[25] = system: HRV16 (11757); test: Anti-rhinovirus spectrum (MTT), HRV16; assay type: cell-based, human rhinovirus; parameters: Anti-Rhinovirus activity, HRV16: unit not given here; conditions: HRV16
[26] = system: clinical isolate (89229T); test: microbe, parasite or virus in culture; assay type: cell-based, human rhinovirus; parameters: Anti-Rhinovirus activity, Clinical isolated strain: unit not given here; conditions: Clinical isolated strain
[27] = system: HRV13 (353); test: Anti-rhinovirus spectrum (MTT), HRV13; assay type: cell-based, human rhinovirus; parameters: Anti-Rhinovirus activity, HRV13: unit not given here; conditions: HRV13
[28] = system: HRV29 (5582); test: Anti-rhinovirus spectrum (MTT), HRV29; assay type: cell-based, human rhinovirus; parameters: Anti-Rhinovirus activity, HRV29: unit not given here; conditions: HRV29
[29] = system: coxsackievirus type A7 (CA7); test: In vitro anti-picornavirus activity (MTT), CA7; assay type: cell-based; conditions: HeLa-S3 cells, MTT method, 37° C.
[30] = system: HRV41 (56110); test: Anti-rhinovirus spectrum (MTT), HRV41; assay type: cell-based, human rhinovirus; parameters: Anti-Rhinovirus activity, HRV41: unit not given here; conditions: HRV41
[31] = HeLa (Ohio strain) cells, MTT method, 33° C.

Cc1c(-c2ccccc2)n(-c2ccc(Cl)cc2)c2ccc(C(C)C)cc2c1=O [Compound A324, 1-(4-chlorophenyl)-2-phenyl-3-methyl-6-isopropyl-1,4-dihydro-4-oxoquinoline]
IC50 ([1]; Human rhinovirus sp., HRV89, HeLa (Ohio strain) cells, MTT method, 33° C., read-out: IC50 HRV89): 0.046 µg/mL (≈ 0.119 µM)
IC50 ([2]; Human rhinovirus sp., HRV1B, HeLa (Ohio strain) cells, MTT method, 33° C., read-out: IC50 HRV1B): 0.53 µg/mL (≈ 1.37 µM)
CC50 at 4 days [3]: > 1 µg/mL
IC50 ([4]; Human rhinovirus sp., HRV2, HeLa (Ohio strain) cells, MTT method, 33° C., read-out: IC50 HRV2): 0.12 µg/mL (≈ 0.309 µM)
melting point: 233 to 235 °C

CCn1c2c(c(=O)c3cc(C(C)C)ccc31)Cc1cc(OC)c(OC)cc1-2 [Compound B22]
IC50 Echo 11 [5]: 0.39 µg/mL (≈ 1.07 µM)
Anti-Rhinovirus activity, HRV36 [6]: 0.25
IC50 CB4 [7]: 1.3 µg/mL (≈ 3.58 µM)
Anti-Rhinovirus activity, HRV89 ([1]; HRV89): 0.36
IC50 HRV89 [1, 31]: 0.36 µg/mL (≈ 0.99 µM)
Cytotoxicity CC50 HeLa [8]: >10 µg/mL
Anti-Rhinovirus activity, HRV14 ([9]; HRV14): 0.86
IC50 HRV 14 [9, 31]: 0.86 µg/mL (≈ 2.37 µM)
Anti-Rhinovirus activity, HRV3 [10]: 0.97
Anti-Rhinovirus activity, HRV1A ([11]; HRV1A): >5.9
IC50 HRV 1A [11, 31]: >5.9 µg/mL
Anti-Rhinovirus activity, HRV39 [12]: 0.46
Anti-Rhinovirus activity, HRV1B ([2]; HRV1B): 0.44
IC50 HRV1B [2, 31]: 0.44 µg/mL (≈ 1.21 µM)
Anti-Rhinovirus activity, HRV10 [13]: 0.53
Anti-Rhinovirus activity, HRV50 [14]: 0.17
Anti-Rhinovirus activity, HRV5 [15]: 0.43
Cytotoxicity CC50 HeLa-S3 [16]: >10 µg/mL
Anti-Rhinovirus activity, HRV32 [17]: 0.19
Anti-Rhinovirus activity, HRV21 [18]: 0.18
IC50 Polio 1 [19]: 0.54 µg/mL (≈ 1.49 µM)
Anti-Rhinovirus activity, HRV31 [20]: 0.14
Cytotoxicity CC50 HeLa(Ohio) [21]: >10 µg/mL
Anti-Rhinovirus activity, HRV61 [22]: 0.34
Anti-Rhinovirus activity, HRV2 ([4]; HRV2): 0.50
IC50 HRV2 [4, 31]: 0.55 µg/mL (≈ 1.51 µM)
Anti-Rhinovirus activity, HRV8 [23]: 0.46
Anti-Rhinovirus activity, HRV33 [24]: 0.16
Anti-Rhinovirus activity, HRV16 [25]: 1.2
Anti-Rhinovirus activity, Clinical isolated strain [26]: 0.43
Anti-Rhinovirus activity, HRV13 [27]: 0.13
Anti-Rhinovirus activity, HRV29 [28]: 0.56
IC50 CA7 [29]: 1.9 µg/mL (≈ 5.23 µM)
Anti-Rhinovirus activity, HRV41 [30]: 0.14
